One assay deals with A549 tumor cells. As to the kind of experiment: Antitumoral efficacy in subcutaneous xenograft A549 lung carcinoma model. The format is in vivo, female athymic nude mice. As to conditions: necropsy day 46; pioglitazone HCl 10 mg/kg, pamapimod 100 mg/kg, alone or combined, p.o. once daily days 22-45. On the procedure: Evaluation of the Antitumoral Efficacy of Pamapimod and Pioglitazone Hydrochloride Alone and in Combination in a Subcutaneous Xenograft A549 Lung Carcinoma Model in Female Athymic Nude Mice In Vivo The study consisted of 4 experimental groups, each containing 10 female athymic nude mice after randomization (for details, see Table 1 below). On day 0, 2×10^6 A549 tumor cells in 100 μl PBS:Matrigel (1:1) were subcutaneously implanted into the left flank of all participating female athymic nude mice. In the following, primary tumor sizes were measured two times weekly (Monday and Friday) by calipering. […] For block randomization, a robust automated random number generation within individual blocks was used (MS-Excel 2003). On the following day (day 22), treatment was initiated in all groups (see Table 1 for details). Pioglitazone HCL (10 mg/kg) and pamapimod (100 mg/kg) were administered both alone (Groups 2 and 3, respectively) and in combination (Group 4) once daily p.o. on days 22-45. Animals of Group 1 were treated with 10 ml/kg Vehicle Control (0.9% NaCl, 0.5% Methyl Cellulose, 0.4% polysorbate 80, 0.9% benzyl alcohol, pH 4.8) once daily p.o. for the same time period. The study was terminated on day 46. All animals were sacrificed and necropsy was performed. Primary tumors were collected and wet weights and volumes determined. On day 0, 2×10^6 A549 tumor cells in 100 μl PBS:Matrigel (1:1) were subcutaneously implanted into the left flank of 54 female athymic nude mice. In the following, animal weights were measured three times weekly (Monday, Wednesday and Friday; balance: Mettler Toledo PB602-L). Primary tumor sizes were measured twice weekly by calipering (manual caliper, OMC Fontana). Tumor sizes were calculated according to the formula W^2×L/2 (L=length and W=the perpendicular width of the tumor, L>W). […] For block randomization, a robust automated random number generation within individual blocks was used (MS-Excel 2003). On the following day (day 22), treatment was initiated in all groups (see Table 1 for details). At necropsy, animals were weighed and killed by cervical dislocation. Primary tumors were collected and wet weights and volumes determined. Primary tumor volumes were analyzed using descriptive data analysis (Mean, SEM, Median and interquartile range). Statistical analysis of efficacy data was done using the Mann Whitney test and the unpaired t-test (in parentheses). All data analysis was performed using GraphPad Prism 5 from GraphPad Software, Inc., San Diego, USA.

The next assay relates to CT26 wt_LLN cells. As to the kind of experiment: Antitumoral efficacy in orthotopic syngeneic CT26 wt colon carcinoma model. The format is in vivo, female BALB/c mice. As to conditions: necropsy day 20, pioglitazone HCl 25 mg/kg, pamapimod 100 mg/kg, p.o. once daily days 3-20; for antitumoral efficacy, primary tumor volume vs vehicle control / antitumoral efficacy, primary tumor weight vs vehicle control: alone or combined; for number of animals with metastases: of 12 animals per group, vehicle group six. On the procedure:
Evaluation of the Antitumoral Efficacy of Pamapimod and Pioglitazone Hydrochloride Alone and in Combination in an Orthotopic Syngeneic CT26 wt Colon Carcinoma Model in Female BALB/c Mice In Vivo The study consisted of 4 experimental groups, each containing 12 female BALB/c mice after randomization (for details, see Table 1 below). On day 0, 0.5×10^5 CT26 wt_LLN cells suspended in 15 μl PBS:Matrigel (1:2) were orthotopically implanted into the caecum of all participating animals. In the following period, primary tumor growth was monitored once weekly on days 2, 9, 15 and 20 using in vivo bioluminescence imaging. On day 2, 48 animals were randomized into 4 groups of 12 animals each according to the current in vivo bioluminescence imaging results (block of four after ranking). For block randomization, a robust automated random number generation within individual blocks was used (MS-Excel 2016). Thereby, detected luciferase signals served as randomization criteria. On the following day (day 3), treatment was initiated in all groups (see Table 1 for details). All treatments were performed at 10 ml/kg 1× daily p.o. on days 3-20. Pioglitazone HCL (25 mg/kg) and pamapimod (100 mg/kg) were administered both alone (Groups 2 and 3, respectively) and in combination (Group 4) once daily p.o. Animals of Group 1 were treated with 10 ml/kg Vehicle Control (0.9% NaCl, 0.5% Methyl Cellulose, 0.4% polysorbate 80, 0.9% benzyl alcohol, pH 4.8) once daily p.o. On day 20, the study was terminated due to tumor burden All animals were sacrificed and a necropsy performed. Primary tumors were collected and wet weights and volumes determined. On day 0, prior to surgery, and 24 h after surgery, all animals received the analgetic Meloxicam (Metacam®; 1 mg/kg) via subcutaneous injection. […] Thereby, cells were carefully injected in between caecum and mesentery. After the caecum had been repositioned, the skin was closed with wound clips. In the following, animal weights were measured three times weekly (Monday, Wednesday and Friday; balance: Mettler Toledo PB602-L). Primary tumor growth was monitored once weekly on days 2, 9, 15 and 20 using in vivo bioluminescence imaging. On day 2, 48 animals were randomized into 4 groups of 12 animals each according to the current in vivo bioluminescence imaging results (block of four after ranking). For block randomization, a robust automated random number generation within individual blocks was used (MS-Excel 2016). Thereby, detected luciferase signals served as randomization criteria. On the following day (day 3), treatment was initiated in all groups (see Table 2 for details). During the course of the study, tumor growth was monitored once weekly on days 2, 9, 15 and 20 using in vivo bioluminescence imaging. For this purpose, 150 mg/kg D-Luciferin were injected intraperitoneally (i.p.) into the mice 7 min before anesthetization. Light emission was measured 10 min post injection with a CCD-camera for 1-5 min using a NightOWL LB 981 bioluminescence imaging system (Berthold Technologies, Germany). On day 20, animals were killed by cervical dislocation. Primary tumors were collected, wet weights and volumes determined. Primary tumor volumes were analyzed using descriptive data analysis (Mean, SEM, Median and interquartile range). Statistical analysis of efficacy data was done using the Mann Whitney test and the unpaired t-test (in parentheses). All data analysis was performed using GraphPad Prism 5 from GraphPad Software, Inc., San Diego, USA.

SMILES strings stand for the structures. Structures can show the parent of a compound that is named as a salt.

Regarding `Cn1c(=O)c(Oc2ccc(F)cc2F)cc2cnc(NC(CCO)CCO)nc21` [pamapimod, 6-(2,4-Difluorophenoxy)-2-[3-hydroxy-1-(2-hydroxyethyl)-propylamino]-8-methyl-8H-pyrido[2,3-d]pyrimidin-7-one], in the assay with A549 tumor cells, the “primary tumor volume vs vehicle control” value was “noticeable decrease in both tumor volumes and tumor weights which was significant for tumor volume”; the “primary tumor weight vs vehicle control” value is listed as “nearly significant for tumor weight”. In the assay with CT26 wt_LLN cells, the “antitumoral efficacy, primary tumor volume vs vehicle control” value is listed as “significant in case of primary tumor volumes”; the “antitumoral efficacy, primary tumor weight vs vehicle control” value is reported as “just beyond significance in case of primary tumor weights”; the “number of animals with metastases” value turned out to be 2 animals.

With `CCc1ccc(CCOc2ccc(CC3SC(=O)NC3=O)cc2)nc1` (stereo not shown) [pioglitazone HCl, pioglitazone hydrochloride], in the assay with A549 tumor cells, the “primary tumor volume vs vehicle control” value is “noticeable reduction in both tumor volumes and tumor weights compared to control which approached statistical significance”; the “primary tumor weight vs vehicle control” value is “noticeable reduction in both tumor volumes and tumor weights compared to control which approached statistical significance”. In the assay with CT26 wt_LLN cells, the “antitumoral efficacy, primary tumor volume vs vehicle control” value is given as “no antitumoral efficacy”; the “antitumoral efficacy, primary tumor weight vs vehicle control” value is “no antitumoral efficacy”; the “number of animals with metastases” value was “four”.

The record behind these values is patent US11285155B2, “Pharmaceutical combinations for treating cancer” (SUPPORT-VENTURE GMBH, priority 2016, dated 2022).
